Results: ChEMBL document CHEMBL4842379 (J Med Chem, 2021)
The source made the active and inactive calls. The rule behind the calls is not given here.

Tests used:
[1] = Reversal of resistance to paclitaxel-induced cytotoxicity in paclitaxel-resistant human SW-620/AD300 cells assessed as reduction in paclitaxel IC50 at 2 uM pre-incubated for 4 hrs followed by paclitaxel addition and measured after 72 hrs by MTT assay; type: functional, cell-based
[2] = Cytotoxicity against paclitaxel-resistant human SW620/AD300 cells measured after 72 hrs by MTT assay; type: functional, cell-based; conditions: SW-620, 72 h
HEK-293T = experiment: Cytotoxicity against human HEK293T cells expressing ABCB1 (unknown origin) measured after 72 hrs by MTT assay; type: functional, cell-based
[3] = target: Epidermal growth factor receptor (Homo sapiens, UniProt P00533, L858R); experiment: Inhibition of EGFR L858R mutant (unknown origin)
Epidermal growth factor receptor, sequence (P00533 25-1210 L858R limits assumed): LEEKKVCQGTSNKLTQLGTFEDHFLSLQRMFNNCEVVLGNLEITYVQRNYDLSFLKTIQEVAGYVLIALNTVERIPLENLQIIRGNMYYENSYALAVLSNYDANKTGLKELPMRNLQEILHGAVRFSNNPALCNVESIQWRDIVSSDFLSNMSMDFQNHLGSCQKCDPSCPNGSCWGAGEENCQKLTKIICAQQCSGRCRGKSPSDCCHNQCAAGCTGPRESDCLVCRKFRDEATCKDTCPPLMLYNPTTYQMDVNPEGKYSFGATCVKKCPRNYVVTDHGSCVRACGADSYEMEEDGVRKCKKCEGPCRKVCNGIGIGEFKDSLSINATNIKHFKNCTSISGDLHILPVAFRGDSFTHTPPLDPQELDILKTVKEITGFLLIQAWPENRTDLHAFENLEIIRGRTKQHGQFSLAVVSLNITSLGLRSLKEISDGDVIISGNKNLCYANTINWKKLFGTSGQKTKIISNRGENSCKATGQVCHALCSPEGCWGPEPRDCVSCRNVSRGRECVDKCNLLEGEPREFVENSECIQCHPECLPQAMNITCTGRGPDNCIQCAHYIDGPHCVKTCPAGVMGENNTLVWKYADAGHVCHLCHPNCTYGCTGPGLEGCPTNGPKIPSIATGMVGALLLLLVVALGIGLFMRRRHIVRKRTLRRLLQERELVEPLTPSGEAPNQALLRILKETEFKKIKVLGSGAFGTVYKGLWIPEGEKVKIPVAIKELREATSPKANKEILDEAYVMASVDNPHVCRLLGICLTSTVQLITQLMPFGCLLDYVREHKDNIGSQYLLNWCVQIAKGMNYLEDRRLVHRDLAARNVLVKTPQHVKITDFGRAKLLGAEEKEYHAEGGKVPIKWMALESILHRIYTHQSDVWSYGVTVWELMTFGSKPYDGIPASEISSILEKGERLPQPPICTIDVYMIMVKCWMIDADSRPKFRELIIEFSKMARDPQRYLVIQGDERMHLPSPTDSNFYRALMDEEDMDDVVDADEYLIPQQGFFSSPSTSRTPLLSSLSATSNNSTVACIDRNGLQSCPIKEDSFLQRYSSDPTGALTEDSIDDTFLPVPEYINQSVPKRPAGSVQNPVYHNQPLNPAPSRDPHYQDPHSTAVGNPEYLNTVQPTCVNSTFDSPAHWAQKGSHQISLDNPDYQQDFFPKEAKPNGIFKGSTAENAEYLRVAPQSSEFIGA

[4] = Reversal of resistance to colchicine-induced cytotoxicity in human SW620/AD300 cells assessed as reduction in colchicine IC50 at 2 uM pre-incubated for 4 hrs followed by colchicine addition and measured after 72 hrs by MTT assay; type: functional, cell-based; conditions: SW-620
SW-620 [5] = experiment: Effect on intracellular Rhodamine 123 accumulation in human SW620 cells at 0.5 to 2 uM incubated for 24 hrs by flow cytometry; type: functional, cell-based; conditions: dose 0.5-2 µM
[6] = target: T1, ATP-dependent translocase ABCB1 (Homo sapiens, UniProt P08183); experiment: Inhibition of P-gp in paclitaxel-resistant human SW620/AD300 cells assessed as accumulation of paclitaxel incubated for 24 hrs by HPLC analysis; type: cell-based; conditions: sw-620, 24 h
T1 sequence (P08183 whole entry): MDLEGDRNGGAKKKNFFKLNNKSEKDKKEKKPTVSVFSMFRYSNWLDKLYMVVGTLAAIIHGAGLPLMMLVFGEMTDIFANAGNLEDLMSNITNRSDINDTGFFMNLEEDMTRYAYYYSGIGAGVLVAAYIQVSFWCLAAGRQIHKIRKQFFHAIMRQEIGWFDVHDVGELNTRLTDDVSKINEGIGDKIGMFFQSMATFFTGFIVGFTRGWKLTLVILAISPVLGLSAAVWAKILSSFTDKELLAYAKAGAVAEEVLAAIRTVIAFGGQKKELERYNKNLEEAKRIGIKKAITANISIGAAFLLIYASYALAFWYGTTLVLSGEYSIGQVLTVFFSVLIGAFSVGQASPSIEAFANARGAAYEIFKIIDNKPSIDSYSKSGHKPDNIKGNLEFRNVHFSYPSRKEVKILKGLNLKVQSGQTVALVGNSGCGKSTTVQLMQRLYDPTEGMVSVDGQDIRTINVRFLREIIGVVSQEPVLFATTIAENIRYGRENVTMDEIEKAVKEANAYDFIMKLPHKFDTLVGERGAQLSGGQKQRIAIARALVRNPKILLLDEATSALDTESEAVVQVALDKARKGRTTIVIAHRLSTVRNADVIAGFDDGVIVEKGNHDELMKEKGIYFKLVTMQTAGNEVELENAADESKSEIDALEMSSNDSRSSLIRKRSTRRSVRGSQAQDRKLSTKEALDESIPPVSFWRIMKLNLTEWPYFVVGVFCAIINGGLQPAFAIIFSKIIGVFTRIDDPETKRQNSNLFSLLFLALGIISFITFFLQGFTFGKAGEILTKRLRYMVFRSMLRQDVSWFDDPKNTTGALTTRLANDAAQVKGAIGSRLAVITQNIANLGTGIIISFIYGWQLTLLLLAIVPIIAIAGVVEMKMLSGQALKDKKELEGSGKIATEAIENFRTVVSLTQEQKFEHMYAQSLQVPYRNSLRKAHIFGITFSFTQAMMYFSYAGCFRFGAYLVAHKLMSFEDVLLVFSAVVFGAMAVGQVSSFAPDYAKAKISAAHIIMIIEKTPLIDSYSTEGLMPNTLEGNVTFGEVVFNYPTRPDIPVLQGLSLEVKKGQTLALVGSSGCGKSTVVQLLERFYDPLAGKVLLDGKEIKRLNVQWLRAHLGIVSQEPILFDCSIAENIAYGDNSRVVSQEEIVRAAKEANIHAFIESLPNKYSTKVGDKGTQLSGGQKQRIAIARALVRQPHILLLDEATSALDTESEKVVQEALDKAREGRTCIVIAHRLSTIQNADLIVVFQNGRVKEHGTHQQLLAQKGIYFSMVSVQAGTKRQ

[7] = Reversal of resistance to paclitaxel-induced cytotoxicity in human SW620/AD300 cells assessed as reduction in paclitaxel IC50 at 0.5 uM pre-incubated for 4 hrs followed by paclitaxel addition and measured after 72 hrs by MTT assay; type: functional, cell-based; conditions: SW-620
[8] = Reversal of resistance to paclitaxel-induced cytotoxicity in human SW620/AD300 cells assessed as reduction in paclitaxel IC50 at 1 uM pre-incubated for 4 hrs followed by paclitaxel addition and measured after 72 hrs by MTT assay; type: functional, cell-based; conditions: SW-620
[9] = Reversal of resistance to colchicine-induced cytotoxicity in human SW620/AD300 cells assessed as reduction in colchicine IC50 at 0.5 uM pre-incubated for 4 hrs followed by colchicine addition and measured after 72 hrs by MTT assay; type: functional, cell-based; conditions: SW-620
[10] = Reversal of resistance to colchicine-induced cytotoxicity in human SW620/AD300 cells assessed as reduction in colchicine IC50 at 1 uM pre-incubated for 4 hrs followed by colchicine addition and measured after 72 hrs by MTT assay; type: functional, cell-based; conditions: SW-620
SW-620 [11] = experiment: Reduction in P-gp expression in paclitaxel-resistant human SW620/AD300 cells measured after 72 hrs by Western blotting analysis; type: functional, cell-based
SW-620 [12] = experiment: Effect on P-gp subcellular localization in paclitaxel-resistant human SW620/AD300 cells measured after 72 hrs by Hoechst 33258 staining based immunocytochemistry analysis; type: functional, cell-based
[13] = target: T1, ATP-dependent translocase ABCB1; experiment: Inhibition of P-gp in paclitaxel-resistant human SW620/AD300 cells assessed as rescue of intracellular Rhodamine 123 accumulation incubated for 24 hrs by flow cytometry; type: cell-based; conditions: sw-620, 24 h, dose 0.5-2 µM
[14] = target: T1, ATP-dependent translocase ABCB1; experiment: Stabilization of P-gp in paclitaxel-resistant human SW620/AD300 cells at higher temperature incubated for 30 mins by Western blot based cellular thermal shift assay; type: cell-based; conditions: sw-620, 0.5 h
[15] = target: T1, ATP-dependent translocase ABCB1; experiment: Inhibition of recombinant human P-gp ATPase activity incubated for 60 mins by luminescence based Glo assay
Cytochrome P450 3A4 = Cytochrome P450 3A4 (Homo sapiens, UniProt P08684); experiment: Inhibition of human recombinant CYP3A4 by fluorescence assay; type: ADME
Cytochrome P450 3A4, sequence (P08684 whole entry): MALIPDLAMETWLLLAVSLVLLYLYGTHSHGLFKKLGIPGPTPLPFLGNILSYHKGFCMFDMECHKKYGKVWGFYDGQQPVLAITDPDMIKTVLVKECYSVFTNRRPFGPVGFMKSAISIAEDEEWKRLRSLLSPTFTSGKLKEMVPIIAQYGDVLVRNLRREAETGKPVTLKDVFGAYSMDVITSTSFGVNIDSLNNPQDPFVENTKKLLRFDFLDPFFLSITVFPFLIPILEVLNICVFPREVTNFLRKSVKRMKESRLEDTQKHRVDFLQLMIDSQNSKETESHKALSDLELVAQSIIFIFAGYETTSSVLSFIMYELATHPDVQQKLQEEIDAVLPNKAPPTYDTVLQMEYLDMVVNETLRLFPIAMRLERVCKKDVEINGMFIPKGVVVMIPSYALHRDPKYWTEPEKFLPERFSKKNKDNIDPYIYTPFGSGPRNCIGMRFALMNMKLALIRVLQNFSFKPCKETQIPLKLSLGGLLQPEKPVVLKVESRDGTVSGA

SW-620 [16] = experiment: In vivo antitumor activity against paclitaxel-resistant human SW620/AD300 cells xenografted in mouse assessed as reduction in tumor volume at 20 mg/kg, po in presence of 5 mg/kg paclitaxel treated for 3 days measured for 19 days; type: functional, organism-based; conditions: time 19.0 day
[17] = Toxicity in mouse xenografted with paclitaxel-resistant human SW620/AD300 cells assessed as change in body weight at 20 mg/kg, po in presence of 5 mg/kg paclitaxel treated for 3 days measured for 19 days; type: organism-based; conditions: in vivo, 456 h, time 19 day
[18] = Toxicity in mouse xenografted with paclitaxel-resistant human SW620/AD300 cells assessed as change in body weight at 20 mg/kg, po measured for 19 days; type: organism-based; conditions: in vivo, 456 h, time 19 day

CCn1c(-c2ccccc2)c(-c2ncnc3ccc(Br)cc23)c2ccccc21
Paclitaxel IC50 in presence of compound at 2 uM [1]: 2200 nM

COc1cc2ncnc(-c3c(-c4ccc(F)cc4)[nH]c4ccccc34)c2cc1OCCCN1CCOCC1
Paclitaxel IC50 in presence of compound at 2 uM [1]: 300 nM

COc1ccc2c(c1)c(-c1ncnc3cc(OC)c(OCCCN4CCOCC4)cc13)cn2Cc1ccccc1
Paclitaxel IC50 in presence of compound at 2 uM [1]: 200 nM

COc1cc2ncnc(-c3c(-c4ccc(-c5ccccc5)cc4)[nH]c4ccccc34)c2cc1OCCCN1CCOCC1
Paclitaxel IC50 in presence of compound at 2 uM [1]: 20 nM

COc1cc2ncnc(-c3c(-c4ccccc4)n(C)c4ccccc34)c2cc1OCCCN1CCOCC1
Paclitaxel IC50 in presence of compound at 2 uM [1]: 100 nM

COc1cc2c(c(OC)c1OC)-c1ccc(OC)c(=O)cc1[C@@H](NC(C)=O)CC2 [COLCHICINE]
IC50 [2]: 62500 nM | IC50 (HEK-293T): 801000 nM

CCc1ccc(-c2[nH]c3ccccc3c2-c2ncnc3cc(OC)c(OCCCN4CCOCC4)cc23)cc1
Paclitaxel IC50 in presence of compound at 2 uM [1]: 70 nM

CCn1c(-c2ccccc2)c(-c2ncnc3cc(OC)c(OCCCN4CCOCC4)cc23)c2ccccc21
Paclitaxel IC50 in presence of compound at 2 uM [1]: 700 nM | IC50 [3]: 1.3 nM

COc1cc2ncnc(-c3c(-c4ccccc4)n(Cc4cccc(Br)c4)c4ccccc34)c2cc1OCCCN1CCOCC1
Paclitaxel IC50 in presence of compound at 2 uM [1]: 20 nM

COc1cc2ncnc(-c3c(-c4ccccc4)n(CCCc4ccccc4)c4ccccc34)c2cc1OCCCN1CCOCC1
Paclitaxel IC50 in presence of compound at 2 uM [1]: 6 nM

COc1cc2ncnc(-c3c(-c4ccccc4)n(Cc4ccc(Cl)cc4)c4ccccc34)c2cc1OCCCN1CCOCC1
Paclitaxel IC50 in presence of compound at 2 uM [1]: 7 nM

C=CCn1c(-c2ccccc2)c(-c2ncnc3cc(OC)c(OCCCN4CCOCC4)cc23)c2ccccc21
Paclitaxel IC50 in presence of compound at 2 uM [1]: 2300 nM

CCn1c(-c2ccccc2)c(-c2nc(-c3ccccc3)nc3ccccc23)c2ccccc21
Paclitaxel IC50 in presence of compound at 2 uM [1]: 1200 nM

COc1cc2ncnc(-c3c(-c4ccc(C)cc4)[nH]c4ccccc34)c2cc1OCCCN1CCOCC1
Paclitaxel IC50 in presence of compound at 2 uM [1]: 300 nM

COc1cc2ncnc(-c3c(-c4ccccc4)[nH]c4ccccc34)c2cc1OCCCN1CCOCC1
Paclitaxel IC50 in presence of compound at 2 uM [1]: 800 nM

COc1cc2ncnc(-c3cn(Cc4ccccc4)c4cccc(OC)c34)c2cc1OCCCN1CCOCC1
Paclitaxel IC50 in presence of compound at 2 uM [1]: 1000 nM

CCn1cc(-c2ncnc3cc(OC)c(OCCCN4CCOCC4)cc23)c2ccccc21
Paclitaxel IC50 in presence of compound at 2 uM [1]: 300 nM

COc1cc2ncnc(-c3c(-c4cccc(C)c4)[nH]c4ccccc34)c2cc1OCCCN1CCOCC1
Paclitaxel IC50 in presence of compound at 2 uM [1]: 400 nM

COc1cc2ncnc(-c3cn(Cc4ccccc4Cl)c4ccccc34)c2cc1OCCCN1CCOCC1
Paclitaxel IC50 in presence of compound at 2 uM [1]: 20 nM

COc1cc2ncnc(-c3c(-c4ccc(Cl)cc4)[nH]c4ccccc34)c2cc1OCCCN1CCOCC1
Paclitaxel IC50 in presence of compound at 2 uM [1]: 20 nM

CCCCn1cc(-c2ncnc3cc(OC)c(OCCCN4CCOCC4)cc23)c2ccccc21
Paclitaxel IC50 in presence of compound at 2 uM [1]: 400 nM

COc1cc2ncnc(-c3c(-c4ccc5ccccc5c4)[nH]c4ccccc34)c2cc1OCCCN1CCOCC1
Paclitaxel IC50 in presence of compound at 2 uM [1]: 40 nM

COc1cc2ncnc(-c3c(-c4cccc(F)c4)[nH]c4ccccc34)c2cc1OCCCN1CCOCC1
Paclitaxel IC50 in presence of compound at 2 uM [1]: 800 nM

COc1cc2ncnc(-c3cn(Cc4ccc(C#N)cc4)c4ccccc34)c2cc1OCCCN1CCOCC1
Paclitaxel IC50 in presence of compound at 2 uM [1]: 200 nM

COc1cc2ncnc(-c3c(-c4ccccc4)n(Cc4cccc(C(F)(F)F)c4)c4ccccc34)c2cc1OCCCN1CCOCC1
Paclitaxel IC50 in presence of compound at 2 uM [1]: 20 nM

C#CCn1c(-c2ccccc2)c(-c2ncnc3cc(OC)c(OCCCN4CCOCC4)cc23)c2ccccc21
Paclitaxel IC50 in presence of compound at 2 uM [1]: 2200 nM

COc1cc2ncnc(-c3c(-c4cccc([N+](=O)[O-])c4)[nH]c4ccccc34)c2cc1OCCCN1CCOCC1
Paclitaxel IC50 in presence of compound at 2 uM [1]: 600 nM

COc1cc2ncnc(-c3c(-c4ccccc4)n(Cc4cccc(Cl)c4)c4ccccc34)c2cc1OCCCN1CCOCC1
Paclitaxel IC50 in presence of compound at 2 uM [1]: 20 nM

COc1cc2ncnc(-c3c(CCc4ccccc4)[nH]c4ccccc34)c2cc1OCCCN1CCOCC1
Paclitaxel IC50 in presence of compound at 2 uM [1]: 200 nM

CCn1c(-c2ccccc2)c(-c2ncnc3cc(OC)c(OC)cc23)c2ccccc21
Paclitaxel IC50 in presence of compound at 2 uM [1]: 1600 nM

CCn1c(-c2ccccc2)c(-c2ncnc3ccccc23)c2ccccc21
Paclitaxel IC50 in presence of compound at 2 uM [1]: 2200 nM

COc1cc2ncnc(-c3c(-c4ccc(Br)cc4)[nH]c4ccccc34)c2cc1OCCCN1CCOCC1
Paclitaxel IC50 in presence of compound at 2 uM [1]: 200 nM

COc1cc2ncnc(-c3c(-c4ccccc4F)[nH]c4ccccc34)c2cc1OCCCN1CCOCC1
Paclitaxel IC50 in presence of compound at 2 uM [1]: 500 nM

CCn1c(-c2ccccc2)c(-c2ncnc3cc(OCCOC)c(OCCOC)cc23)c2ccccc21
Paclitaxel IC50 in presence of compound at 2 uM [1]: 800 nM

COc1ccc(CCN(C)CCCC(C#N)(c2ccc(OC)c(OC)c2)C(C)C)cc1OC (configuration not stated)
IC50 [4]: 20600 nM | Activity (SW-620 [5]): inactive | Activity [6]: Dose-Dependent Effect

COc1cc2ncnc(-c3c(-c4cccc(Br)c4)[nH]c4ccccc34)c2cc1OCCCN1CCOCC1
Paclitaxel IC50 in presence of compound at 2 uM [1]: 3000 nM

COc1cc2ncnc(-c3cn(Cc4cccc(C)c4)c4ccccc34)c2cc1OCCCN1CCOCC1
Paclitaxel IC50 in presence of compound at 2 uM [1]: 30 nM

COc1cc2ncnc(-c3c(-c4ccc(C(F)(F)F)cc4)[nH]c4ccccc34)c2cc1OCCCN1CCOCC1
Paclitaxel IC50 in presence of compound at 2 uM [1]: 700 nM

COc1cc2ncnc(-c3c(-c4ccccc4)n(Cc4ccccc4Br)c4ccccc34)c2cc1OCCCN1CCOCC1
IC50 [7]: 100 nM | IC50 [8]: 20 nM | IC50 [9]: 26500 nM | IC50 [10]: 17200 nM | IC50 [4]: 6200 nM | Activity (SW-620 [11]): inactive | Activity (SW-620 [12]): inactive | Activity [13]: Dose-Dependent Effect | Activity (SW-620 [5]): inactive | Activity [6]: Dose-Dependent Effect | Activity [14]: Dose-Dependent Effect | IC50 [15]: 5100 nM | Activity ([15]; human, 1 h, time 60 min): Dose-Dependent Effect | IC50 (Cytochrome P450 3A4): 4100 nM | Activity (SW-620 [16]): Active | Activity [17]: Non-Toxic | Activity [18]: Non-Toxic

CC(=O)O[C@H]1C(=O)[C@@]2(C)[C@H]([C@H](OC(=O)c3ccccc3)[C@]3(O)C[C@H](OC(=O)[C@H](O)[C@@H](NC(=O)c4ccccc4)c4ccccc4)C(C)=C1C3(C)C)[C@]1(OC(C)=O)CO[C@@H]1C[C@@H]2O [PACLITAXEL]
IC50 [2]: 2300 nM | IC50 (HEK-293T): 36400 nM

COc1ccc2c(-c3ncnc4cc(OC)c(OCCCN5CCOCC5)cc34)cn(Cc3ccccc3)c2c1
Paclitaxel IC50 in presence of compound at 2 uM [1]: 100 nM

CCCCc1ccc(-c2[nH]c3ccccc3c2-c2ncnc3cc(OC)c(OCCCN4CCOCC4)cc23)cc1
Paclitaxel IC50 in presence of compound at 2 uM [1]: 100 nM

COc1cc2ncnc(-c3c(Cc4ccccc4)[nH]c4ccccc34)c2cc1OCCCN1CCOCC1
Paclitaxel IC50 in presence of compound at 2 uM [1]: 2000 nM

COc1cc2ncnc(-c3c(-c4cccc(Cl)c4)[nH]c4ccccc34)c2cc1OCCCN1CCOCC1
Paclitaxel IC50 in presence of compound at 2 uM [1]: 200 nM

COc1cc2ncnc(-c3c(-c4ccc(C(C)C)cc4)[nH]c4ccccc34)c2cc1OCCCN1CCOCC1
Paclitaxel IC50 in presence of compound at 2 uM [1]: 300 nM

COc1cc2ncnc(-c3cn(Cc4ccccc4)c4ccccc34)c2cc1OCCCN1CCOCC1
Paclitaxel IC50 in presence of compound at 2 uM [1]: 50 nM
